Measurements: patent publication US20100305113A1, “Substituted Imidazopyridazines as Lipid Kinase Inhibitors” (priority 2007, published 2010)

What was measured:
Format in all cases: biochemical
Conditions in all cases: Enzymatic Data
[1] = molecular target: T1, PI3K beta (Homo sapiens, UniProt P42338); experiment: PI3K beta enzymatic assay (Kinase-Glo luminescence)
T1 construct: for the full-length p110-b subunit are generated and fused by overlapping PCR; p85(iSH2) fusion partner (same polypeptide; see partner chain) (N); Gly linker (N); His tag (C); made in house; host or cells: baculovirus; Tn5 (Trichoplusia ni) or TiniPro insect cells
Experimental: (§1) In a more preferred assay, the kinase reaction is performed in a final volume of 10 μL per well of a low volume non binding CORNING, 384 well black plate (Cat. No. #3676). The final concentrations of ATP and phosphatidyl inositol (PI) in the assay are 1 μM and 10 μg/mL respectively. The reaction is started by the addition of ATP.
(§2) The components of the assay are added per well as follows:
(§3) 50 nL test compounds in 90% DMSO per well, in columns 1-20, 8 concentrations (⅓ and 1/3.33 serial dilution step) in single. • Low control: 50 nL of 90% DMSO in half the wells of columns 23-24 (0.45% in final). • High control: 50 nL of reference compound (e.g. compound of Example 7 in WO 2006/122806, incorporated by reference herein that regard) in the other half of columns 23-24 (2.5 μM in final). • Standard: 50 nL of reference compound as just mentioned diluted as the test compounds in columns 21-22 • 20 mL ‘buffer’ are prepared per assay: • 200 μL of 1M TRIS HCl pH7.5 (10 mM in final) • 60 μL of 1M MgCl2 (3 mM in final) • 500 μL of 2M NaCl (50 mM in final) • 100 μL of 10% CHAPS (0.05% in final) • 200 μL of 100 mM DTT (1 mM in final) • 18.94 mL of nanopure water • 10 mL ‘PI’ are prepared per assay: • 200 μL of 1 mg/ml L-alpha-Phosphatidylinositol (Liver Bovine, Avanti Polar Lipids Cat. No. 840042C MW=909.12) prepared in 3% OctylGlucoside ([…]) • 9.8 mL of ‘buffer’ • 10 mL ‘ATP’ are prepared per assay: • 6.7 μL of 3 mM stock of ATP giving a final concentration of 1 μM per well • 10 mL of ‘buffer’ • 2.5 mL of each PI3K construct are prepared per assay in ‘PI’ with the following final concentration: • 10 nM PI3K alfa BV-1075 • 25 nM beta BV-949 • 10 nM delta BV-1060 • 150 nM gamma BV-950 • 5 μL of ‘PI/PI3K’ are added per well. • 5 μl ‘ATP’ are added per well to start the reaction. • The plates are then incubated at room temperature for 60 minutes (alfa, beta, delta) or 120 minutes (gamma). • The reaction is terminated by the addition of 10 μL Kinase-Glo (Promega Cat. No. #6714). • The assay plates are read after 10 minutes in Synergy 2 reader (BioTek, Vermont USA) with an integration time of 100 milliseconds and sensitivity set to 191. • Output: The High control is around 60′000 counts and the Low control is 30′000 or lower • This luminescence assay gives a useful Z′ ratio between 0.4 and 0.7 The Z′ value is a universal measurement of the robustness of an assay. A Z′ between 0.5 and 1.0 is considered an excellent assay.
PI3Kβ BV-949 p85(iSH2)-Gly linker-p110b (Full-Length)-C-Term His Tag
(§4) IC50 is determined by a four parameter curve fitting routine that comes aloneg with “excel fit”. A 4 Parameter logistic equation is used to calculate IC50 values (IDBS XLfit) of the percentage inhibition of each compound at 8 concentrations (usually 10, 3.0, 1.0, 0.3, 0.1, 0.030, 0.010 and 0.003 μM). Alternatively, IC50 values are calculated using idbsXLfit model 204, which is a 4 parameter logistic model.

[2] = molecular target: T2, PI3K gamma (Homo sapiens, UniProt P48736); experiment: PI3K gamma enzymatic assay (Kinase-Glo luminescence)
T2 construct: His tag (C); made in house; host or cells: construct from Roger Williams lab (MRC LMB); baculovirus (pVL1393); Tn5 (Trichoplusia ni) or TiniPro insect cells
Experimental: as §1, §2, §3, §4

[3] = molecular target: T3, PI3K alfa (Homo sapiens, UniProt P42336); experiment: PI3K alfa enzymatic assay (Kinase-Glo luminescence)
T3 construct: p85(iSH2) fusion partner (same polypeptide; see partner chain) (N); 12x Gly linker (N); His tag (C); made in house; host or cells: baculovirus; Tn5 (Trichoplusia ni) or TiniPro insect cells
Experimental: as §1, §2, §3, §4

[4] = molecular target: T4, PI3K delta (Homo sapiens, UniProt O00329); experiment: PI3K delta enzymatic assay (Kinase-Glo luminescence)
T4 construct: for the full-length p110-d subunit are generated and fused by overlapping PCR; p85(iSH2) fusion partner (same polypeptide; see partner chain) (N); Gly linker (N); His tag (C); made in house; host or cells: baculovirus; Tn5 (Trichoplusia ni) or TiniPro insect cells
Experimental: as §1, §2, §3
PI3Kδ BV-1060 p85(iSH2)-Gly Linker-p110d (Full-Length)-C-term His Tact
as §4

T4 sequence (O00329 with tags, fused parts or gaps limits assumed): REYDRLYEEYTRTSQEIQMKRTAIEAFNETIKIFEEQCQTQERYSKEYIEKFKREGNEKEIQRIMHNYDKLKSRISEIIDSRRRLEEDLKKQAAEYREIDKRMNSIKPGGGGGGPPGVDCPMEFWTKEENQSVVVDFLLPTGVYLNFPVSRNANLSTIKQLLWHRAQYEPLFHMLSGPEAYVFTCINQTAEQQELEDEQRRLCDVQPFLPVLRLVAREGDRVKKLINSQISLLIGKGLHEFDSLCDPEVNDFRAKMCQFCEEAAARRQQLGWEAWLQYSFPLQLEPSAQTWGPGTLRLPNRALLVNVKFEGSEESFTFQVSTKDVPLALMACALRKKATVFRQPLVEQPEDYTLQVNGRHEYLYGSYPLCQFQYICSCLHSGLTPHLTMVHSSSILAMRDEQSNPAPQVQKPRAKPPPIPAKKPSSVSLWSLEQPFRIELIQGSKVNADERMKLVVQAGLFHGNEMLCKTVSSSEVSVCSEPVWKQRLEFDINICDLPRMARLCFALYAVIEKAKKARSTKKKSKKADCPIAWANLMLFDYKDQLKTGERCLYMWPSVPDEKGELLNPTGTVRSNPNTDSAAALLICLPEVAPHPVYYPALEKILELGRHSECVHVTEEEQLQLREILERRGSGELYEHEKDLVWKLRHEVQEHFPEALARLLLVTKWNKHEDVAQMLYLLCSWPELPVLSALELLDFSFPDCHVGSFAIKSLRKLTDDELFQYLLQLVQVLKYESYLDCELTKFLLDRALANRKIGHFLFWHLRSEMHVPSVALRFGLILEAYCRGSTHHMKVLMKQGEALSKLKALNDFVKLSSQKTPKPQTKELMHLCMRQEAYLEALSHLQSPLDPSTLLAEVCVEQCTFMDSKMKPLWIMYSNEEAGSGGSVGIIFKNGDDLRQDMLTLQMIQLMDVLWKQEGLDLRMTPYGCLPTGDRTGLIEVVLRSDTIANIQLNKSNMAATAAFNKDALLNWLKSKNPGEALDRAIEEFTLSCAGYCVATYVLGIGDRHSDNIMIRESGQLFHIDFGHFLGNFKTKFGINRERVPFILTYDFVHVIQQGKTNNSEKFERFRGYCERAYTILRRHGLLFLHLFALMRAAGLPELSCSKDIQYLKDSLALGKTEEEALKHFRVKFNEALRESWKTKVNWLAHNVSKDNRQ
T2 sequence (P48736 144-1102 limits assumed): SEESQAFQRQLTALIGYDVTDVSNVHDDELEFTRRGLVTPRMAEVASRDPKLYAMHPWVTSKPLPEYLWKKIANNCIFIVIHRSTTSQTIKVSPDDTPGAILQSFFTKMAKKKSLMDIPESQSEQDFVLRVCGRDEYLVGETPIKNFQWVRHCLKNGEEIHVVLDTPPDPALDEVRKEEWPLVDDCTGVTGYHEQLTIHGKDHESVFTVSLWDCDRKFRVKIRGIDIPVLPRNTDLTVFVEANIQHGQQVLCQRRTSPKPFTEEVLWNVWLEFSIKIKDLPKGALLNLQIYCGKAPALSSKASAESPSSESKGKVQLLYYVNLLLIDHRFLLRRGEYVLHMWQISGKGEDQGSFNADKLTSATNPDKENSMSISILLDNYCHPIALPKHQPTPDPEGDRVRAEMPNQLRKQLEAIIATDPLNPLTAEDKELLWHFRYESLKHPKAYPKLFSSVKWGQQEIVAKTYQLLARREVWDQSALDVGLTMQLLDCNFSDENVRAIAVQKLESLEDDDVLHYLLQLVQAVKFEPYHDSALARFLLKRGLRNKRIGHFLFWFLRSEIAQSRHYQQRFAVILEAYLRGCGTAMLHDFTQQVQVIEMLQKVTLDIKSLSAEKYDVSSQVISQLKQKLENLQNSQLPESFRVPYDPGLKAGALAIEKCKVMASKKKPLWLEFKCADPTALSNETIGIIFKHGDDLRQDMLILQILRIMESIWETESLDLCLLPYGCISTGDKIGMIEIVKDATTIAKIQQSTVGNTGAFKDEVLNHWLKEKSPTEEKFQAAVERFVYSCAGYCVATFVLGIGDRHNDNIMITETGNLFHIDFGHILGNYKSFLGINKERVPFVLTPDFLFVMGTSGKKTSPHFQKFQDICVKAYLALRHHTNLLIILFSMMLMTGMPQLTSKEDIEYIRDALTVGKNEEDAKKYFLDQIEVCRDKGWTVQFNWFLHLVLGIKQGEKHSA
T3 sequence (P42336 with tags, fused parts or gaps limits assumed): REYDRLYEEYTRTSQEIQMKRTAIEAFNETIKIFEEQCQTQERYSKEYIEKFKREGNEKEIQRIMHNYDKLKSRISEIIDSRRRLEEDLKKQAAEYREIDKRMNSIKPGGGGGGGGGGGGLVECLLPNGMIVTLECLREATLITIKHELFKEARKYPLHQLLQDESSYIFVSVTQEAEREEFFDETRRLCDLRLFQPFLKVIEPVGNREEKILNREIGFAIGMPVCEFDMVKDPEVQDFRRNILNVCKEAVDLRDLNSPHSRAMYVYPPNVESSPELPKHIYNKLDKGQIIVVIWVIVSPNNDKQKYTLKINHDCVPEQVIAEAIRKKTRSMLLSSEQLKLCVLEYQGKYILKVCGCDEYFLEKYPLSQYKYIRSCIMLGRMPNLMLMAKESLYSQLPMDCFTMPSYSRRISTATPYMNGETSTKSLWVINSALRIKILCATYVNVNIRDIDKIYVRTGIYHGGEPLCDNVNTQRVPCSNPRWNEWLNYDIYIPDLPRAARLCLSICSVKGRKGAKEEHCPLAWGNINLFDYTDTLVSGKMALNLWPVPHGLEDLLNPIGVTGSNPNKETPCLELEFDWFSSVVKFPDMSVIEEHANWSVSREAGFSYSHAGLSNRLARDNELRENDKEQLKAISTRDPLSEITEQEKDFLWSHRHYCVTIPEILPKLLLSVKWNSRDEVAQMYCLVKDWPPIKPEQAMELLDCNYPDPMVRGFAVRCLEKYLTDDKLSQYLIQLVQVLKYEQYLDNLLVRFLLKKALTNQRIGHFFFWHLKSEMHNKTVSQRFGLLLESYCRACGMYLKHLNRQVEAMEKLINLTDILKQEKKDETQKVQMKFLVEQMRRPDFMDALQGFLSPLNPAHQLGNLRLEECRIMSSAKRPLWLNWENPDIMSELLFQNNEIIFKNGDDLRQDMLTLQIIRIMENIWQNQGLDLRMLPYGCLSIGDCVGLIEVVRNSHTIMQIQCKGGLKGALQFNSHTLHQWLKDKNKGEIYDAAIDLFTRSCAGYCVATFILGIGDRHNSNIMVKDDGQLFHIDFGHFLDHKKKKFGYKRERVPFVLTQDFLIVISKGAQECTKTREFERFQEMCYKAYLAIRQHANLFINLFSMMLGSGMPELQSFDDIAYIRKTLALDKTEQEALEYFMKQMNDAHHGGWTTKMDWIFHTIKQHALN
T1 sequence (P42338 with tags, fused parts or gaps limits assumed): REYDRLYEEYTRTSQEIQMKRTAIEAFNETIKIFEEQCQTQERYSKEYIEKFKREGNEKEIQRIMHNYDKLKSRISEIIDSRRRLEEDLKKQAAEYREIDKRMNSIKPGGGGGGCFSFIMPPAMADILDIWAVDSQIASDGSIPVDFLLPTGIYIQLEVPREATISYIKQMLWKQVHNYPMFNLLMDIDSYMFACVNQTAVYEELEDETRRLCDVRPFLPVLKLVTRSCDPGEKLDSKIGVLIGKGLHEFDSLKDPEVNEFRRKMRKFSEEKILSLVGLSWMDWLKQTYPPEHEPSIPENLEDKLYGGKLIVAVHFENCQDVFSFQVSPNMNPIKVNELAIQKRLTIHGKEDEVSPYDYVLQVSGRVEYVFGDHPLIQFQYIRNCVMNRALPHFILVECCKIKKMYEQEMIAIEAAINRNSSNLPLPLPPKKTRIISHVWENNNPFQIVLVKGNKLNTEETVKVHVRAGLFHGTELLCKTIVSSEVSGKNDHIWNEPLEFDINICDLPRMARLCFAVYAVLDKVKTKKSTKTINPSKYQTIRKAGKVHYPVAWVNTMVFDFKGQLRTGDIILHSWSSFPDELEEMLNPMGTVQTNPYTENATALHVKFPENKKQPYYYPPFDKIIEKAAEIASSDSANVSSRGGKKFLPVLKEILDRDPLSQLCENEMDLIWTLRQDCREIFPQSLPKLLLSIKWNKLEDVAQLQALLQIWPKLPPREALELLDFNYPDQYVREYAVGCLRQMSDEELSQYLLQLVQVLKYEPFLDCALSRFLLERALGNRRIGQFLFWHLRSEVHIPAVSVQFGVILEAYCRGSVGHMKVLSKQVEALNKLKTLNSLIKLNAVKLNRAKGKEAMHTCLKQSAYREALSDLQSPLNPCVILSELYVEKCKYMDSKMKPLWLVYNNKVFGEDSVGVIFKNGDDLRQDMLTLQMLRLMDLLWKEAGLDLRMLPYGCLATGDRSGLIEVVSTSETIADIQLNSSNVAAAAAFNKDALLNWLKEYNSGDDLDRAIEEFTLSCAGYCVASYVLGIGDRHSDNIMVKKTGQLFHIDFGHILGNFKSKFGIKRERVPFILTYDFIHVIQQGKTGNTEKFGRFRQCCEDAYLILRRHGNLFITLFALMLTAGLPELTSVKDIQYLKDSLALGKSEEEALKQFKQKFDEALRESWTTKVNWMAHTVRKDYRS

IC50 [1] | IC50 [2] | IC50 [3] | IC50 [4] | Structure (SMILES)
> 9.1 µM | 0.655 µM | 0.408 µM | 0.406 µM | COc1ccc(-c2ccc3nc(C)c(-c4ccn(S(=O)(=O)c5ccc(C#N)cc5)n4)n3n2)cc1OC [Example 21, 4-{3-[6-(3,4-Dimethoxy-phenyl)-2-methyl-imidazo[1,2-b]pyridazin-3-yl]-pyrazole-1-sulfonyl}-benzonitrile]
3.03 µM | 0.098 µM | 0.051 µM | 0.041 µM | COc1ccc(-c2ccc3nc(C)c(-c4ccnc(N(C)CCN(C)C)n4)n3n2)cc1OC [Example 88, N-{4-[6-(3,4-Dimethoxy-phenyl)-2-methyl-imidazo[1,2-b]pyridazin-3-yl]-pyrimidin-2-yl}-N,N′,N′-trimethyl-ethane-1,2-diamine]
1.21 µM | 0.345 µM | 0.044 µM | 0.152 µM | COc1ccc(-c2ccc3nc(C)c(-c4ccc(C#N)nc4)n3n2)cc1OC [Example 4]
0.613 µM | 0.536 µM | 0.11 µM | 2.39 µM | COc1ccc(-c2ccc3nc(C)c(-c4ccc(N5CCNCC5)nc4)n3n2)cc1OC [Example 11, 6-(3,4-Dimethoxy-phenyl)-2-methyl-3-(6-piperazin-1-yl-pyridin-3-yl)-imidazo[1,2-b]pyridazine]
> 9.1 µM | 8.51 µM | 2.15 µM | 4 µM | COc1ccc(-c2ccc3nc(C)c(-c4ccnc(NCc5ccccc5)n4)n3n2)cc1OC [Example 86, Benzyl-{4-[6-(3,4-dimethoxy-phenyl)-2-methyl-imidazo[1,2-b]pyridazin-3-yl]-pyrimidin-2-yl}-amine]
4.19 µM | 1.85 µM | 0.455 µM | 2.71 µM | COc1ccc(-c2ccc3nc(C)c(-c4cncc(C#N)c4)n3n2)cc1OC [Example 6]
> 25 µM | > 25 µM | > 25 µM | > 25 µM | COc1ccc(-c2ccc3nc(C)c(-c4ncccc4C)n3n2)cc1OC [Example 16, 6-(3,4-Dimethoxy-phenyl)-2-methyl-3-(3-methyl-pyridin-2-yl)-imidazo[1,2-b]pyridazine]
0.193 µM | 0.507 µM | 0.015 µM | 0.024 µM | COc1cc(-c2ccc3nc(C)c(-c4cnc(N)c(C(F)(F)F)c4)n3n2)ccc1OCCCN [Example 25, 5-{6-[4-(3-Amino-propoxy)-3-methoxy-phenyl]-2-methyl-imidazo[1,2-b]pyridazin-3-yl}-3-trifluoromethyl-pyridin-2-ylamine]

Continued, compound first:

Structure (SMILES) | IC50 [1] | IC50 [2] | IC50 [3] | IC50 [4]
COc1cccc(C(=O)NCCOc2ccc(-c3ccc4nc(C)c(-c5cnc(N)c(C(F)(F)F)c5)n4n3)cc2OC)c1 [Example 39] | > 9.1 µM | > 9.1 µM | 0.368 µM | > 9.1 µM
COc1cccc(NC(=O)NCCOc2ccc(-c3ccc4nc(C)c(-c5cnc(N)c(C(F)(F)F)c5)n4n3)cc2OC)c1 [Example 59] | > 9.1 µM | 2.64 µM | 0.371 µM | > 9.1 µM
COc1cc(-c2ccc3nc(C)c(-c4cnc(N)c(C(F)(F)F)c4)n3n2)ccc1OCCCNC(=O)C(F)(F)F [Example 85, N-(3-{4-[3-(6-Amino-5-trifluoromethyl-pyridin-3-yl)-2-methyl-imidazo[1,2-b]pyridazin-6-yl]-2-methoxy-phenoxy}-propyl)-2,2,2-trifluoro-acetamide] | > 9.1 µM | 2.59 µM | 0.244 µM | 3.49 µM
COc1cc(-c2ccc3nc(C)c(-c4cnc(N)c(C(F)(F)F)c4)n3n2)ccc1OCCNC(=O)c1ccc(N2CCOCC2)cc1 [Example 94, N-(2-{4-[3-(6-Amino-5-trifluoromethyl-pyridin-3-yl)-2-methyl-imidazo[1,2-b]pyridazin-6-yl]-2-methoxy-phenoxy}-ethyl)-4-morpholin-4-yl-benzamide] | > 9.1 µM | > 9.1 µM | 0.367 µM | 6.78 µM
Cc1nc2ccc(-c3ccc(OCC4(NC(=O)OC(C)(C)C)COC4)cc3)nn2c1-c1cnc(N)c(C(F)(F)F)c1 [Example 113, (3-{4-[3-(6-Amino-5-trifluoromethyl-pyridin-3-yl)-2-methyl-imidazo[1,2-b]pyridazin-6-yl]-phenoxymethyl}-oxetan-3-yl)-carbamic acid tert-butyl ester] | > 9.1 µM | > 9.1 µM | 1.01 µM | 5.11 µM
COc1cc(-c2ccc3nc(C)c(-c4cnc(N)c(C(F)(F)F)c4)n3n2)ccc1OCCNC(=O)c1ccc(OC)c(OC)c1OC [Example 95, N-(2-{4-[3-(6-Amino-5-trifluoromethyl-pyridin-3-yl)-2-methyl-imidazo[1,2-b]pyridazin-6-yl]-2-methoxy-phenoxy}-ethyl)-2,3,4-trimethoxy-benzamide] | > 9.1 µM | 4.74 µM | 0.245 µM | 5.37 µM
COc1cc(-c2ccc3nc(C)c(-c4cnc(N)c(C(F)(F)F)c4)n3n2)ccc1OCCNC(=O)OC(C)C [Example 79] | > 9.1 µM | 0.648 µM | 0.099 µM | 2.04 µM
Cc1nc2ccc(-c3ccc(OCCCN4CCCC4=O)cc3)nn2c1-c1ccc(S(C)(=O)=O)cc1 [Example 106, 1-(3-{4-[3-(4-Methanesulfonyl-phenyl)-2-methyl-imidazo[1,2-b]pyridazin-6-yl]-phenoxy}-propyl)-pyrrolidin-2-one] | > 9.1 µM | 1.05 µM | 2.21 µM | 1.04 µM
CCS(=O)(=O)c1ccc(-c2c(C)nc3ccc(-c4ccc(OC5CCN(C(=O)OC(C)(C)C)CC5)c(OC)c4)nn23)cc1 [Example 99, 4-{4-[3-(4-Ethanesulfonyl-phenyl)-2-methyl-imidazo[1,2-b]pyridazin-6-yl]-2-methoxy-phenoxy}-piperidine-1-carboxylic acid tert-butyl ester] | > 9.1 µM | > 9.1 µM | > 9.1 µM | > 9.1 µM
COc1cc(-c2ccc3nc(C)c(-c4cnc(N)c(C(F)(F)F)c4)n3n2)ccc1OCCNC(=O)c1cccc(C#N)c1 [Example 27] | > 9.1 µM | 2.28 µM | 0.456 µM | > 9.1 µM
COc1cc(-c2ccc3nc(C)c(-c4cnc(N)c(C(F)(F)F)c4)n3n2)ccc1OCCNC(=O)Nc1cc(OC)c(OC)c(OC)c1 [Example 61] | > 9.1 µM | 0.194 µM | 0.242 µM | 2.71 µM
CCS(=O)(=O)c1ccc(-c2c(C)nc3ccc(-c4ccc(OCCOCCOCCOC)c(OC)c4)nn23)cc1 [Example 91, 3-(4-Ethanesulfonyl-phenyl)-6-(3-methoxy-4-{2-[2-(2-methoxy-ethoxy)-ethoxy]-ethoxy}-phenyl)-2-methyl-imidazo[1,2-b]pyridazine] | > 9.1 µM | > 9.1 µM | 4.11 µM | 3.4 µM
